biological target: T1, VLA4 (Homo sapiens, UniProt P05556+P13612); assay: Inhibition of VLA4-dependent adhesion to BSA-CS1 (labelled Ramos cells); assay type: cell-based; details: binding of BCECF-AM labelled Ramos cells to CS1 peptide-coated wells, 2 mM MnCl2, 30 minutes at room temperature; IC50 range
T1 construct: endogenous in cells; host or cells: Ramos cells
From the text: For example, the cell adhesion inhibitory activity of these compounds may be measured by determining the concentration of inhibitor required to block the binding of VLA-4-expressing cells to fibronectin- or CS1-coated plates. In this assay microtiter wells are coated with either fibronectin (containing the CS-1 sequence) or CS-1. If CS-1 is used, it must be conjugated to a carrier protein, such as bovine serum albumin, in order to bind to the wells. Once the wells are coated, varying concentrations of the test compound are then added together with appropriately labelled, VLA-4-expressing cells. Alternatively, the test compound may be added first and allowed to incubate with the coated wells prior to the addition of the cells. The cells are allowed to incubate in the wells for at least 30 minutes. Following incubation, the wells are emptied and washed. Inhibition of binding is measured by quantitating the fluorescence or radioactivity bound to the plate for each of the various concentrations of test compound, as well as for controls containing no test compound.
VLA-4-expressing cells that may be utilized in this assay include Ramos cells, Jurkat cells, A375 melanoma cells, as well as human peripheral blood lymophocytes (PBLs). The cells used in this assay may be fluorescently or radioactively labelled.
This assay was used to assess the potency of VLA4-directed inhibitory compounds of this invention.
We dissolved BSA-SMCC (Pierce Chemical, Rockford, Ill.; Catalog # 77115) in H2O at a concentration of 10 mg/mL. [SEQ ID NO:4]: […](“Cys-Tyr-CS1 peptide”), which we synthesized by conventional solid phase chemistry and purified by HPLC, was dissolved in 10 mM HEPES pH 5, 50 mM NaCl and 0.1 mM EDTA also at a concentration of 10 mg/mL. We then mixed 500 μL of BSA-SMCC, 250 μL of Cys-Tyr-CS1 peptide and 75 μL of […] and allowed the conjugation reaction to proceed for 30 minutes. We stopped the reaction by adding 1 μL of beta-mercaptoethanol. Samples were analyzed for cross-linking by SDS-PAGE. This reaction produced multiple molecules of the Cys-Tyr-CS1 peptide conjugate to each BSA molecule.
We coated the wells of a Linbro titertek polystyrene 96-well flat bottom plate (Flow Laboratories, Maclean, Va.; catalog #76-231-05) with 100 μL of the above-described BSA-CS1 solution diluted to 1 μg/mL in 0.05 M NaHCO3 (15 mM NaHCO3, 35 mM Na2CO3) pH 9.2. Some wells were not coated with CS1 in order to assess non-specific cell binding (NSB). The plate was then incubated overnight at 4° C.
Following this incubation, the contents of the wells were removed by inverting and blotting the plate. All of the wells were then blocked with 100 μL of 1% BSA in PBS, 0.02% NaN3, for a minimum of one hour at room temperature.
3. Preparation of Fluorescently Labelled Ramos Cells Ramos cells are grown, maintained and labelled in RPMI 1640 culture medium containing 1% BSA. Just prior to running the assay, we added 2′,7′-bis-(2-carboxyethyl)5 (and -6) carboxyfluorescein acetoxymethyl ester (“BCECF-AM”; Molecular Probes Inc., Eugene, Oreg.; catalog #B-1150) to a final concentration of 2 μM to a culture of Ramos cells (4×10^6 cells/mL). We incubated the cells for 20 minutes at 37° C.
Following labelling, the cells were washed twice in assay buffer (24 mM TRIS, 137 mM NaCl, 2.7 mM KCl, pH 7.4, containing 0.1% BSA and 2 mM glucose) to remove any cations originating from the culture medium. The cells were then resuspended in assay buffer to 4×10^6 cells/mL and 2 mM MnCl2 was added to upregulate VLA4 on the surface of the cells.
Immediately prior to running the assay, we removed the BSA blocking solution from the 96-well plates and washed the wells with 100 μL of assay buffer. We then added to each well 25 μL of test cell adhesion inhibitory compound at 2× the final concentration and 25 μL of the labelled Ramos cells. Final concentrations were selected across a range of anticipated IC50s, usually between 0.01 nM–10 μM. […]

T1 sequence (P13612 34-1032): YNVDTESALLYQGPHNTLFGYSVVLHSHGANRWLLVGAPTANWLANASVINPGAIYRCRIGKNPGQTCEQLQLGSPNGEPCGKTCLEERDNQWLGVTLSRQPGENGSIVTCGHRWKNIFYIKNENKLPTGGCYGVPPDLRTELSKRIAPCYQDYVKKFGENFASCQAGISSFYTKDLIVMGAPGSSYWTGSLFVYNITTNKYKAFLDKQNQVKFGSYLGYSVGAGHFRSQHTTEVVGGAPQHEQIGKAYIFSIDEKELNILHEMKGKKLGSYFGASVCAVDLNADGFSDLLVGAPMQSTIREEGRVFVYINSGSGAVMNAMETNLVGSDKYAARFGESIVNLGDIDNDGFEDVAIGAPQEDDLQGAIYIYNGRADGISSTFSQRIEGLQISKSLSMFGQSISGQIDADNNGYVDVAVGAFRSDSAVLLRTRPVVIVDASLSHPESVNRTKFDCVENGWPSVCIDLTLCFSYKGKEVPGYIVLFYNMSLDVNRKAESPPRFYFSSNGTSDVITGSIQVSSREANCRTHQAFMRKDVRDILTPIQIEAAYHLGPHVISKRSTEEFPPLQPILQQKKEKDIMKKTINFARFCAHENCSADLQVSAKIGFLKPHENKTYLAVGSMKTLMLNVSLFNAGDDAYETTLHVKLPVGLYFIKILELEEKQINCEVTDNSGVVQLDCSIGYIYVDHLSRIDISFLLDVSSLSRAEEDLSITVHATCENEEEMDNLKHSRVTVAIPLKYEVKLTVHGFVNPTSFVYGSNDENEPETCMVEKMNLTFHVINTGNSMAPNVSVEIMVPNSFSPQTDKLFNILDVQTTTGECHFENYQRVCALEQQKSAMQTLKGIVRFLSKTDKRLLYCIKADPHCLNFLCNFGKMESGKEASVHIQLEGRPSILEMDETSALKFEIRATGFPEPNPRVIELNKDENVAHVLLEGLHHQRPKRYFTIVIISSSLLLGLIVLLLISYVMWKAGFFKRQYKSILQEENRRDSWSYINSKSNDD
T1 sequence (P05556 21-798): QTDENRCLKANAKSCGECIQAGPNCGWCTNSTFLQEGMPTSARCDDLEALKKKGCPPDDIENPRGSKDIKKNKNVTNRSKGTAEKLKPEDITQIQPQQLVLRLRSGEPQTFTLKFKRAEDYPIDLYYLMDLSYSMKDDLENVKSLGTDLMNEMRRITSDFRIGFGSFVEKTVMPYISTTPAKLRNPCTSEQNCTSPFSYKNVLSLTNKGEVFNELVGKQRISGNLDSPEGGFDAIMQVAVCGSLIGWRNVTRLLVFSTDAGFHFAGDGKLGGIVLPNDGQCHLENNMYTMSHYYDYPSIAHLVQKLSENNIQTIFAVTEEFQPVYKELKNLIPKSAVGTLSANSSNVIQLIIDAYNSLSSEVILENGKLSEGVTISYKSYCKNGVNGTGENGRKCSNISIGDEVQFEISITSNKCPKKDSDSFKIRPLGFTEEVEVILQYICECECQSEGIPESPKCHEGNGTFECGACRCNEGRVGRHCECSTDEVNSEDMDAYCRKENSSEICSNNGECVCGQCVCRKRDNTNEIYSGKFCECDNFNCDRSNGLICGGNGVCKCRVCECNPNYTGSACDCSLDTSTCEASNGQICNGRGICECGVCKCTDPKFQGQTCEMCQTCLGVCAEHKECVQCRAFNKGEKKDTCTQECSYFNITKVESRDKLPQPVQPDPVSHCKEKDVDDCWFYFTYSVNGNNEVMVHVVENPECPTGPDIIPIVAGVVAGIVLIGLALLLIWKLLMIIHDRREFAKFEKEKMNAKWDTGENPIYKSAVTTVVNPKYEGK

| IC50 [µM] | SMILES |
| --- | --- |
| > 10 | CC(C)CC(NC(=O)Cc1ccc(NC(=O)OCc2ccccc2)cc1)C(=O)NC(CC(=O)O)c1ccccc1 (stereo not shown) [compound 1101] |
| > 10 | CC(C)CC(NC(=O)Cc1ccc(N)cc1)C(=O)NC(CC(=O)O)c1ccccc1 (stereo not shown) [compound 1103] |
| 0.05 to 10 | CC(C)CC(NC(=O)Cc1ccc(NS(=O)(=O)c2ccccc2)cc1)C(=O)NC(CC(=O)O)c1ccccc1 (stereo not shown) [compound 1104] |
| 0.05 to 10 | CC(C)CC(NC(=O)Cc1ccc(NC(=O)c2ccccc2)cc1)C(=O)NC(CC(=O)O)c1ccccc1 (stereo not shown) [compound 1105] |
| > 10 | CC(C)CC(NC(=O)CCCCCNC(=O)Nc1ccccc1)C(=O)NC(CC(=O)O)c1ccccc1 (stereo not shown) [compound 1106] |
| > 10 | CC(C)CC(NC(=O)CCCCCNC(=O)NC(C)(C)C)C(=O)NC(CC(=O)O)c1ccccc1 (stereo not shown) [compound 1107] |
| > 10 | CC(C)CC(NC(=O)Nc1ccc(N)cc1)C(=O)NC(CC(=O)O)c1ccccc1 (stereo not shown) [compound 1109] |
| 0.05 to 10 | CC(C)CC(NC(=O)Nc1ccc(NC(=O)Nc2ccccc2)cc1)C(=O)NC(CC(=O)O)c1ccccc1 (stereo not shown) [compound 1110] |
| > 10 | COc1cc(CC(=O)NC(CC(C)C)C(=O)NC(CC(=O)O)c2ccccc2)cc(OC)c1O (stereo not shown) [compound 1111] |
| > 10 | CC(C)CC(NC(=O)Cc1ccc(O)c([N+](=O)[O-])c1)C(=O)NC(CC(=O)O)c1ccccc1 (stereo not shown) [compound 1112] |
| > 10 | CC(C)CC(NC(=O)Cc1cccc([N+](=O)[O-])c1)C(=O)NC(CC(=O)O)c1ccccc1 (stereo not shown) [compound 1113] |
| > 10 | CC(C)CC(C(=O)NC(CC(=O)O)c1ccccc1)N(C)C(=O)Cc1ccccc1 (stereo not shown) [compound 1114] |
| 0.05 to 10 | CC(C)CC(NC(=O)Cc1ccccc1)C(=O)NC(CC(=O)O)c1ccc(Cl)cc1 (stereo not shown) [compound 1115] |
| > 10 | COC(C)C(NC(=O)Cc1ccccc1)C(=O)NC(CC(=O)O)c1ccccc1 (stereo not shown) [compound 1117] |
| > 10 | COc1ccc(CC(NC(=O)Cc2ccccc2)C(=O)NC(CC(=O)O)c2ccccc2)cc1 (stereo not shown) [compound 1122] |
| > 10 | O=C(O)CC(NC(=O)C(CCc1ccccc1)NC(=O)Cc1ccccc1)c1ccccc1 (stereo not shown) [compound 1123] |

Further lines, the compound ahead of its results:

| SMILES | IC50 [µM] |
| --- | --- |
| CC(C)CC(NC(=O)Cc1ccccc1)C(=O)NC(CC(=O)O)c1ccccc1 (stereo not shown) [compound 1081] | 0.05 to 10 |
| CC(C)CC(NC(=O)CCCc1ccccc1)C(=O)NC(CC(=O)O)c1ccccc1 (stereo not shown) [compound 1082] | > 10 |
| CC(C)CC(NC(=O)OCc1ccccc1)C(=O)NC(CC(=O)O)c1ccccc1 (stereo not shown) [compound 1085] | > 10 |
| CC(C)CC(NC(=O)Nc1ccccc1)C(=O)NC(CC(=O)O)c1ccccc1 (stereo not shown) [compound 1086] | 0.05 to 10 |
| CC(C)CC(C(=O)NC(CC(=O)O)c1ccccc1)N(C)C(=O)CCc1ccc(O)cc1 (stereo not shown) [compound 1087] | > 10 |
| COc1ccc(C(CC(=O)O)NC(=O)C(CC(C)C)NC(=O)Cc2ccc(NC(=O)Nc3ccccc3)cc2)cc1 (stereo not shown) [compound 1088] | < 0.05 |
| COc1ccc(C(CC(=O)O)NC(=O)C(CCSC)NC(=O)Cc2ccc(NC(=O)Nc3ccccc3)cc2)cc1 (stereo not shown) [compound 1089] | < 0.05 |
| CC(C)CC(NC(=O)Cc1ccc(O)cc1)C(=O)NC(CC(=O)O)c1ccccc1 (stereo not shown) [compound 1091] | 0.05 to 10 |
| COc1ccc(CC(=O)NC(CC(C)C)C(=O)NC(CC(=O)O)c2ccccc2)cc1 (stereo not shown) [compound 1092] | > 10 |
| CC(C)CC(NC(=O)Cc1ccc([N+](=O)[O-])cc1)C(=O)NC(CC(=O)O)c1ccccc1 (stereo not shown) [compound 1093] | > 10 |
| CCCCCCC(=O)NC(CC(C)C)C(=O)NC(CC(=O)O)c1ccccc1 (stereo not shown) [compound 1094] | > 10 |
| CC(C)CC(NC(=O)Cc1ccccc1O)C(=O)NC(CC(=O)O)c1ccccc1 (stereo not shown) [compound 1096] | > 10 |
| CC(C)CC(NC(=O)Cc1cccc(O)c1)C(=O)NC(CC(=O)O)c1ccccc1 (stereo not shown) [compound 1097] | 0.05 to 10 |
| CC(C)CC(NC(=O)Cc1ccc(O)c(O)c1)C(=O)NC(CC(=O)O)c1ccccc1 (stereo not shown) [compound 1098] | > 10 |
| COc1cc(CC(=O)NC(CC(C)C)C(=O)NC(CC(=O)O)c2ccccc2)c(Br)cc1O (stereo not shown) [compound 1100] | 0.05 to 10 |
